Data published in PubChem BioAssay AID330 (DTP/NCI, 2004).
“And” between values parts separate entries of the source, which are not always exact repeats. Equal entries are not always repeated. Inconclusive results and toxic doses are left out. How the source made its calls: active means survival T/C of 150% or more; inactive means T/C below 125% in these data.

Tested on: P388 leukemia ip, CD2F1 mice, survival T/C
Experiment: NCI In Vivo Anticancer Drug Screen. Data for tumor model P388 Leukemia (intraperitoneal) in CD2F1 (CDF1) mice
Details: endpoint: median survival time, higher = longer survival
Procedure, shortened: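 Mice carrying the transplanted tumor received test compound or vehicle. Survival was recorded in each group, and the value is the treated-group measurement divided by that of the vehicle-treated control group.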

[1] = dose: 100.0 mg/kg/injection, schedule: Q04DX003 (ip), vehicle: saline with Tween-80
[2] = dose: 200.0 mg/kg/injection, schedule: Q04DX003 (ip), vehicle: saline with Tween-80
[3] = dose: 400.0 mg/kg/injection, schedule: Q04DX003 (ip), vehicle: saline with Tween-80
[4] = dose: 6.25 mg/kg/injection, schedule: Q01DX009 (ip), vehicle: saline with Tween-80
[5] = dose: 50.0 mg/kg/injection, schedule: Q01DX009 (ip), vehicle: suspension in saline
[6] = dose: 100.0 mg/kg/injection, schedule: Q01DX009 (ip), vehicle: suspension in saline
[7] = dose: 200.0 mg/kg/injection, schedule: Q01DX009 (ip), vehicle: suspension in saline
[8] = dose: 50.0 mg/kg/injection, schedule: Q01DX009 (ip), vehicle: Klucel (hydroxypropylcellulose) (HPC)
[9] = dose: 100.0 mg/kg/injection, schedule: Q01DX009 (ip), vehicle: Klucel (hydroxypropylcellulose) (HPC)
[10] = dose: 50.0 mg/kg/injection, schedule: Q01DX005 (ip), vehicle: Klucel (hydroxypropylcellulose) (HPC)
[11] = dose: 100.0 mg/kg/injection, schedule: Q01DX005 (ip), vehicle: Klucel (hydroxypropylcellulose) (HPC)
[12] = dose: 200.0 mg/kg/injection, schedule: Q01DX005 (ip), vehicle: Klucel (hydroxypropylcellulose) (HPC)
[13] = dose: 100.0 mg/kg/injection, schedule: Q01DX009 (ip), vehicle: saline with Tween-80
[14] = dose: 25.0 mg/kg/injection, schedule: Q01DX005 (ip), vehicle: saline with Tween-80
[15] = dose: 50.0 mg/kg/injection, schedule: Q01DX005 (ip), vehicle: saline with Tween-80
[16] = dose: 100.0 mg/kg/injection, schedule: Q01DX005 (ip), vehicle: saline with Tween-80
[17] = dose: 200.0 mg/kg/injection, schedule: Q01DX005 (ip), vehicle: saline with Tween-80

Measured: T/C

COc1ccc2c(c1)CC[C@@H]1[C@@H]2CC[C@]2(C)[C@@H](OCCOS(=O)(=O)c3ccc(C)cc3)CC[C@@H]12
inactive: dose: 100.0 mg/kg/injection, schedule: Q01DX001 (ip), vehicle: saline with Tween-80 99 % of control | dose: 200.0 mg/kg/injection, schedule: Q01DX001 (ip), vehicle: saline with Tween-80 101 % of control | dose: 400.0 mg/kg/injection, schedule: Q01DX001 (ip), vehicle: saline with Tween-80 101 % of control

Clc1ccc(/C=N/Nc2nnc3c(n2)[nH]c2ccccc23)cc1
inactive: dose: 100.0 mg/kg/injection, schedule: Q04DX002 (ip), vehicle: saline with Tween-80 99 % of control | dose: 200.0 mg/kg/injection, schedule: Q04DX002 (ip), vehicle: saline with Tween-80 100 % of control | dose: 400.0 mg/kg/injection, schedule: Q04DX002 (ip), vehicle: saline with Tween-80 90 % of control

CC(=O)CCC12CCC(=O)N1Cc1ccccc1C2=O (stereo not drawn)
inactive: dose: 60.0 mg/kg/injection, schedule: Q01DX005 (ip), vehicle: saline with Tween-80 106 % of control | dose: 120.0 mg/kg/injection, schedule: Q01DX005 (ip), vehicle: saline with Tween-80 123 % of control | dose: 240.0 mg/kg/injection, schedule: Q01DX005 (ip), vehicle: saline with Tween-80 106 % of control

C[Si](C)(C)C1OC1[Si](C)(C)C (stereo not drawn)
inactive: dose: 50.0 mg/kg/injection, schedule: Q04DX002 (ip), vehicle: other 103 % of control | dose: 100.0 mg/kg/injection, schedule: Q04DX002 (ip), vehicle: other 105 % of control | dose: 200.0 mg/kg/injection, schedule: Q04DX002 (ip), vehicle: other 108 % of control

CP1(=O)CCC2=C1CCCC2 (stereo not drawn)
inactive: [1] 105 % of control | [2] 107 % of control | [3] 104 % of control

O=C(Nc1cccc2ccccc12)N1c2ccccc2SC12CCCC2
inactive: dose: 1.56 mg/kg/injection, schedule: Q01DX009 (ip), vehicle: saline with Tween-80 104 % of control | dose: 3.13 mg/kg/injection, schedule: Q01DX009 (ip), vehicle: saline with Tween-80 100 % of control | [4] 99 % of control and 94 % of control

O=[N+]([O-])c1ccc(/C(=C/c2ccc(Cl)cc2Cl)S(=O)(=O)C(Cl)Cl)o1
inactive: [5] 86 % of control | [6] 96 % of control | [7] 103 % of control

O=C1CC[S][Sn][O]1
inactive: [1] 100 % of control | [2] 95 % of control | [3] 95 % of control

CO/C=C(\C(=O)OC)c1ccccc1
inactive: [8] 100 % of control | [9] 106 % of control | dose: 200.0 mg/kg/injection, schedule: Q01DX009 (ip), vehicle: Klucel (hydroxypropylcellulose) (HPC) 106 % of control

O=C1CSc2ncccc2N1c1ccc([N+](=O)[O-])cn1
inactive: [5] 105 % of control | dose: 100.0 mg/kg/injection, schedule: Q01DX009 (ip), vehicle: saline 100 % of control | [6] 101 % of control | dose: 200.0 mg/kg/injection, schedule: Q01DX009 (ip), vehicle: saline 96 % of control | [7] 101 % of control

COc1ccc([B-]23OCC[N+]2(CNC(=O)c2ccccc2O)CCO3)cc1 (stereo not drawn)
inactive: [10] 103 % of control | [11] 112 % of control | [12] 105 % of control

CC(c1ccccc1)C1NC(=O)NC1=O (stereo not drawn)
inactive: dose: 25.0 mg/kg/injection, schedule: Q01DX009 (ip), vehicle: saline with Tween-80 117 % of control | dose: 50.0 mg/kg/injection, schedule: Q01DX009 (ip), vehicle: saline with Tween-80 106 % of control | [13] 106 % of control

CC12CCC(O)CC1CCC1C2C(O)CC2(C)C1CCC2(C)O (stereo not drawn)
inactive: dose: 100.0 mg/kg/injection, schedule: Q04DX003 (ip), vehicle: alcohol 105 % of control | dose: 200.0 mg/kg/injection, schedule: Q04DX003 (ip), vehicle: alcohol 90 % of control | dose: 400.0 mg/kg/injection, schedule: Q04DX003 (ip), vehicle: alcohol 115 % of control

O=[N+]([O-])c1ccc(/C=C\c2ccc(Cl)cc2S(=O)(=O)F)c(Cl)c1
inactive: [13] 95 % of control | dose: 100.0 mg/kg/injection, schedule: Q04DX003 (ip), vehicle: Klucel (hydroxypropylcellulose) (HPC) 117 % of control | dose: 200.0 mg/kg/injection, schedule: Q01DX009 (ip), vehicle: saline with Tween-80 100 % of control | dose: 200.0 mg/kg/injection, schedule: Q04DX003 (ip), vehicle: Klucel (hydroxypropylcellulose) (HPC) 103 % of control | dose: 400.0 mg/kg/injection, schedule: Q01DX009 (ip), vehicle: saline with Tween-80 104 % of control | dose: 400.0 mg/kg/injection, schedule: Q04DX003 (ip), vehicle: Klucel (hydroxypropylcellulose) (HPC) 112 % of control

NS(=O)(=O)c1ccc(NC(=O)CCl)cc1
inactive: dose: 12.5 mg/kg/injection, schedule: Q01DX009 (ip), vehicle: Klucel (hydroxypropylcellulose) (HPC) 110 % of control | dose: 25.0 mg/kg/injection, schedule: Q01DX009 (ip), vehicle: Klucel (hydroxypropylcellulose) (HPC) 108 % of control and 120 % of control | [8] 110 % of control and 121 % of control | [9] 121 % of control

CCCC(C)C/C(C)=C/C(C)(C)C(CC(=O)N1CCOCC1)C(=O)O (stereo not drawn)
inactive: dose: 25.0 mg/kg/injection, schedule: Q04DX003 (ip), vehicle: saline with Tween-80 100 % of control | dose: 50.0 mg/kg/injection, schedule: Q04DX003 (ip), vehicle: saline with Tween-80 100 % of control | [1] 100 % of control

CN1[C@H]2CC[C@@H]1[C@@H](O)CC2
inactive: [14] 97 % of control | [15] 97 % of control | [16] 91 % of control

COC1CCC(NC(C)=O)C(C2CCCCC2)C1 (stereo not drawn)
inactive: [15] 99 % of control | [16] 94 % of control | [17] 91 % of control

CC(C)N(c1nccc(F)n1)C(C)C
inactive: [14] 103 % of control | [15] 101 % of control | [16] 103 % of control | [17] 104 % of control

CSc1ncc2c(=O)c3c(ccc4ccccc43)oc2n1
inactive: dose: 3.12 mg/kg/injection, schedule: Q01DX009 (ip), vehicle: saline with Tween-80 93 % of control | [4] 102 % of control | dose: 12.5 mg/kg/injection, schedule: Q01DX009 (ip), vehicle: saline with Tween-80 96 % of control

N#CC(=S)N(C(=O)c1ccc(Cl)cc1)c1ccccc1Cl
inactive: dose: 60.0 mg/kg/injection, schedule: Q01DX005 (ip), vehicle: Klucel + Tween-80 103 % of control | dose: 120.0 mg/kg/injection, schedule: Q01DX005 (ip), vehicle: Klucel + Tween-80 112 % of control

Cc1ncc(COP(=O)(O)O)c(C2NC(C(=O)O)CS2)c1O (stereo not drawn)
inactive: dose: 50.0 mg/kg/injection, schedule: Q01DX005 (ip), vehicle: saline 115 % of control | dose: 60.0 mg/kg/injection, schedule: Q01DX005 (ip), vehicle: saline 92 % of control | dose: 100.0 mg/kg/injection, schedule: Q01DX005 (ip), vehicle: saline 107 % of control | dose: 120.0 mg/kg/injection, schedule: Q01DX005 (ip), vehicle: saline 94 % of control | dose: 200.0 mg/kg/injection, schedule: Q01DX005 (ip), vehicle: saline 113 % of control | dose: 240.0 mg/kg/injection, schedule: Q01DX005 (ip), vehicle: saline 91 % of control

O=C1c2ccccc2C(=O)N1c1ccccc1Br
inactive: [10] 100 % of control | [11] 97 % of control | [12] 101 % of control
